Values of other authors as cited in US5840324A, “Antiparasitic compositions” (Commonwealth Scientific and Industrial Organisation, priority 1993, dated 1998).

Tests used:
[1] = for time of maximum concentration in the bloodstream: after oral administration; for absorption: conventional dosing; for activity of metabolic products: degradation products of absorbed compound

Structure (SMILES)	absorption of ABZ in the abomasum	time of maximum concentration in the bloodstream [1] [h]	absorption [1]	excretion of absorbed drug ([1]; in vivo)	metabolism ([1]; in vivo)	association with plasma albumin (plasma albumin)	retention in the bloodstream at efficacious levels ([1]; against blood-consuming parasites)	dose lost in faeces ([1]; in vivo)	activity of metabolic products [1]
CCCSc1ccc2nc(NC(=O)OC)[nH]c2c1 [ABZ, [5-(propylthio)-1H-benzimidazol-2-yl]carbamic acid methyl ester]	virtually no absorption								
Cl.c1ccc([C@H]2CN3CCSC3=N2)cc1 [Levamisole, (-)-(S)-2,3,5,6-tetrahydro-6-phenylimidazo[2,1-b]thiazole hydrochloride]		2 to 4	rapidly absorbed from the rumen	rapidly excreted, predominantly in urine	rapidly metabolised				
Cc1cc(C(C#N)c2ccc(Cl)cc2)c(Cl)cc1NC(=O)c1cc(I)cc(I)c1O (stereo not drawn) [closantel, 5'-chloro-4'-(4-chloro-α-cyanobenzyl)-3,5-diiodosalicyl-o-toluidide]			slowly absorbed			very strongly associate with plasma albumin	3-4 weeks	about 50%	
Cc1ccsc1/C=C/C1=NCCCN1C [morantel, (E)-1,4,5,6-tetrahydro-1-methyl-2-[2-(3-methyl-2-thienyl)vinyl]-pyrimidine]		2 to 4	rapidly absorbed from the rumen	rapidly excreted, predominantly in urine	degraded at a rate consistent with first-pass metabolism				completely inactive
CN1CCCN=C1/C=C/c1cccs1 [pyrantel, 1,4,5,6-tetrahydro-1-methyl-2-[(E)-2-(2-thienyl)-vinyl]-pyrimidine-4,4'-methylenebis-(3-hydroxy-2-naphthoate)]		2 to 4	rapidly absorbed from the rumen	rapidly excreted, predominantly in urine	degraded at a rate consistent with first-pass metabolism				completely inactive
